Consider seven compounds from patent EP4745118A1, “HYDROXAMIC ACID COMPOUND OR PHARMACEUTICALLY ACCEPTABLE SALT THEREOF, AND USE THEREOF AND PREPARATION METHOD THEREFOR” (priority 2023, dated 2025).

In one assay the test system is Vero cells. Briefly: Vero cytotoxicity (CCK-8). Type of assay: cell-based. Here is the method: All liquid was transferred to a 15 mL centrifuge tube and centrifuged at 800 rpm for 5 min. […] A cell counter was used to measure cell density. Cells were inoculated at 100 µL and a density of 3 × 10^5/mL into a 96-well plate, with 6 replicates per group, and incubated at 37°C for 4 hours to allow cells to adhere to the wall. The compound was twofold continuously diluted with PBS, and 10 µL of the compound with the corresponding concentration was added to the 96-well plate, and shaken and mixed well on a shaker, and then incubated at 37°C for 24 hours. 10 µL of CCK-8 reagent was added to the 96-well plate, mixed thoroughly on a shaker, and incubated at 37°C for 2 hours. A microplate reader was used to measure the absorbance at 450 nm wavelength, and the inhibition rate of the compound on Vero cells was calculated. Table 5 Vero cytotoxicity of 4 optical isomers and control drug

The target in assay [1] is T1, recombinant Escherichia coli LpxC enzyme (rLpxC) (Escherichia coli, UniProt P0A725).
T1 sequence (P0A725 1-305): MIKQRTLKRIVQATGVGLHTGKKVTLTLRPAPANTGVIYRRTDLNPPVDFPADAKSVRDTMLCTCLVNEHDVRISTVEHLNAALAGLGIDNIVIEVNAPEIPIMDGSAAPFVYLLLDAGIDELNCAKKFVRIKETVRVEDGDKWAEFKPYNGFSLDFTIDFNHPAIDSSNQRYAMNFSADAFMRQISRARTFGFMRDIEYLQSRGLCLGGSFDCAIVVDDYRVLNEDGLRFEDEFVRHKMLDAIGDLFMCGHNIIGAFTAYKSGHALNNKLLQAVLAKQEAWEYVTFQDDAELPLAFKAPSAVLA
Briefly: Inhibition of recombinant Escherichia coli LpxC enzyme activity (LC-MS). The following applies: 37°C, 30 minutes reaction, substrate UDP-3-O (R-hydroxytetradecanoyl)-N-acetylglucosamine. Type of assay: biochemical. Here is the method: Preparation of recombinant Escherichia coli LpxC enzyme (rLpxC). 2 µL of recombinant Escherichia coli LpxC enzyme (6.29 mg/mL) was added to 18 µL of distilled water. After thorough mixing, 2 µL of this mixture was added to 1042.4 µL of distilled water and mixed well to prepare a 36 nM working solution.
The substrate was UDP-3-O (R-hydroxytetradecanoyl)-N-acetylglucosamine, with UDP-α-D-N-Acetylglucosamine Disodium Salt as the internal standard. Mobile phase A: 90% water-10% acetonitrile containing 10 mM ammonium acetate; B: acetonitrile.
Reaction system: Corresponding solutions were prepared as per the table below, and placed in a 37°C metal bath, and mixed at 300 rpm for 10 minutes. After mixing for 10 minutes, 10 µl of 250 µM substrate was added to each group to initiate the reaction, and placed in a 37°C metal bath and reacted at 300 rpm for 30 minutes.
Termination solution: 1.1 µL of 1 mM internal standard was added to 2 mL of acetonitrile. 1.5 mL of EP tubes were taken and 100 µL of termination solution was added to each EP tube. The concentration of the internal standard in the final 350 µL system is 100 ng/mL.
Detection: 10 µL of reaction solution was added to 100 µL of the termination solution in an EP tube, mixed thoroughly, and then 240 µL of distilled water was added and mixed well, centrifuged at 14,000 rpm for 5 minutes. 70 µL of supernatant was transferred to an LC-MS vial and API 6500 Qtrap LC-MS system was used to measure substrates and metabolites. The median inhibition concentrations (IC50) of the four optical isomers and ACHN-975 against rLpxC enzyme were calculated. Table 4 Inhibitory activity of 4 optical isomers and control drug against recombinant Escherichia coli LpxC enzyme

[2] abbreviates: Chlorocebus sabaeus, Vero, 24 h.
The mark [3] stands for this setting: Chlorocebus sabaeus, Vero cells, 24 hours incubation, CCK-8, read-out: IC50.

Read-outs that look alike come from different tables or passages of the source. Bounds are passed on as bounds.

Turning to `COCC1CC1C#CC#Cc1ccc(C(=O)NC(C(=O)NO)C(C)(C)N)cc1` (mixture of isomers) [Ia/Ib racemate], the IC50 with Vero cells (Vero cells, 24 hours incubation, CCK-8, read-out: IC50) was greater than 128 µM; in assay [1] it was 1.03 nM.
As to `CC(C)(N)[C@H](NC(=O)c1ccc(C#CC#C[C@@H]2C[C@H]2CO)cc1)C(=O)NO` [ACHN-975], the IC50 in the assay on Vero cells (setting [2]) was greater than 128 µM; in assay [1], 1.07 nM.
Regarding `CO[C@H]1CCC[C@@H]1C#CC#Cc1ccc(C(=O)N[C@H](C(=O)NO)C(C)(C)N)cc1` [A], the IC50 with Vero cells (setting [3]) is greater than 64 µM; in assay [1], 4.68 nM.
The matching figures for `COC[C@@H]1C[C@H]1C#CC#Cc1ccc(C(=O)N[C@H](C(=O)NO)C(C)(C)N)cc1` [Ia, N-(S)-3-amino-1-hydroxyamino-3-methyl-1-oxobutan-2-yl-4-[[(1R,2R)-2-(methoxymethylene)cyclopropyl]but-1,3-diynyl]benzamide]: greater than 128 µM and 1.07 nM.
Turning to `COC[C@H]1C[C@@H]1C#CC#Cc1ccc(C(=O)N[C@H](C(=O)NO)C(C)(C)N)cc1` [Ib, N-(S)-3-amino-1-hydroxyamino-3-methyl-1-oxobutan-2-yl-4-[[(1S,2S)-2-(methoxymethylene)cyclopropyl]but-1,3-diynyl]benzamide], the values for the IC50 (in the assay on Vero cells (setting [2]); in assay [1]) were greater than 128 µM and 0.857 nM, respectively.
Turning to `COC[C@H]1C[C@H]1C#CC#Cc1ccc(C(=O)N[C@H](C(=O)NO)C(C)(C)N)cc1` [Ic, N-(S)-3-amino-1-hydroxyamino-3-methyl-1-oxobutan-2-yl-4-[[(1R,2S)-2-(methoxymethylene)cyclopropyl]but-1,3-diynyl]benzamide], the IC50 was greater than 128 µM in the assay on Vero cells (setting [3]) and 0.905 nM in assay [1].
Regarding `COC[C@@H]1C[C@@H]1C#CC#Cc1ccc(C(=O)N[C@H](C(=O)NO)C(C)(C)N)cc1` [Id, N-(S)-3-amino-1-hydroxyamino-3-methyl-1-oxobutan-2-yl-4-[[(1S,2R)-2-(methoxymethylene)cyclopropyl]but-1,3-diynyl]benzamide], the IC50 with Vero cells (setting [3]) was greater than 128 µM; in assay [1], 0.892 nM.

For orientation: IC50 means the concentration needed to halve the response being measured.
